Measurements: patent EP4800013A1, “PARG INHIBITOR” (Shanghai Qilu Pharmaceutical Research and Development …, priority 2023, dated 2025)

Columns and labels:
PXR = target: T1, PXR (Homo sapiens, UniProt O75469); experiment: PXR activation in stably transfected DPX2 cells (CYP3A4 promoter-driven luciferase reporter); assay type: cell-based; details: 24 or 48 hours, test concentration not given
T1 construct: host or cells: DPX2 (HepG2 stably transfected)
T1 sequence (O75469 1-434): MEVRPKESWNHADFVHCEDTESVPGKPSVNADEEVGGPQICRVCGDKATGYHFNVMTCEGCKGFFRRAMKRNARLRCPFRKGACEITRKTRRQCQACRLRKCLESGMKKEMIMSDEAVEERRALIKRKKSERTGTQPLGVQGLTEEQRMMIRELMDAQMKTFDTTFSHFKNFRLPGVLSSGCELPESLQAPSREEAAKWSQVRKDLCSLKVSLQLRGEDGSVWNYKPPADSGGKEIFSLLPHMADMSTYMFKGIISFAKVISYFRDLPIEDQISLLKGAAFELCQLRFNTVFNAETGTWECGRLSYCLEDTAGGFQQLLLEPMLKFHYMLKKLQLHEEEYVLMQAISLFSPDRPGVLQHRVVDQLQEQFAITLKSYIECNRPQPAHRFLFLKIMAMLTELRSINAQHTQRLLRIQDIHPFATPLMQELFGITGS
Description: The purpose of this study was to evaluate the potential of the compounds of the present disclosure and the comparative compound (WO2023183850A1, compound of formula A) to activate PXR in vitro, thereby inducing drug-metabolizing enzymes.
DPX2 cells (HepG2 cell line stably transfected with PXR and a CYP3A4 promoter-driven luciferase reporter gene) were purchased from Puracyp Inc (Carlsbad, CA). Fetal bovine serum was purchased from Acantor.
• 1) DPX2 cells were cultured in medium containing 10% fetal bovine serum (FBS). • 2) DPX2 cells were cultured in a T-75 flask in a cell culture incubator at 37°C with 5% CO2 and 95% relative humidity. The cells were subjected to trypsinization when they reached 80% to 90% confluence. • 3) The medium was aspirated from the T-75 flask, and the cells were rinsed with 10 mL of PBS. After removing PBS, 3 to 5 mL of trypsin was added. The flask was incubated at 37°C for approximately 5 minutes or until cell detachment and floating were observed. […] After 24 or 48 hours of cell treatment, quantification of PXR activation was performed. • 8) CellTiter Fluor™ Cell Viability Assay Kit and One-Glo Luciferase Assay Kit were equilibrated to room temperature. […] 25 µL of the prepared cell viability assay system was gently added to each well, followed by incubation for 30 minutes in the cell culture incubator at 37°C. • 10) The 384-well plate was removed from the cell culture incubator, and fluorescence of individual wells was measured using a microplate reader in fluorescence mode with excitation at 400 nm and emission at 505 nm. Subsequently, 25 µL of the prepared luciferase assay system was gently added to each well, followed by vortexing and incubation at room temperature for 5 minutes, and luminescence of individual wells was measured using a microplate reader.
Cell viability percentage was calculated using the following formula: Cell viability (%) = Isample / Ivehicle × 100, where Isample is the mean fluorescence intensity of treated wells; Ivehicle is the mean fluorescence intensity of cells treated with 0.1% DMSO. […]

PARG = target: T2, PARG (Homo sapiens, UniProt Q86W56); experiment: Enzymatic inhibitory activity against PARG, HTRF assay; assay type: biochemical; details: HTRF; PARylated PARP1 protein as substrate; 60 minutes at room temperature; read-out: IC50 against PARG enzyme
T2 construct: made in house
Summary of the method: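 Purified PARG pre-incubated with compounds (top 10 µM, 3- to 5-fold dilutions, duplicates) 15 min at room temperature, then PARylated PARP1 substrate added for 60 min in Tris pH 7.4 buffer with DTT, EDTA/EGTA, KCl. HTRF (His-Tb/SA-XL665) read-out; IC50 by four-parameter logistic fit, normalised to DMSO and control-inhibitor wells.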

T2 sequence (Q86W56 whole entry): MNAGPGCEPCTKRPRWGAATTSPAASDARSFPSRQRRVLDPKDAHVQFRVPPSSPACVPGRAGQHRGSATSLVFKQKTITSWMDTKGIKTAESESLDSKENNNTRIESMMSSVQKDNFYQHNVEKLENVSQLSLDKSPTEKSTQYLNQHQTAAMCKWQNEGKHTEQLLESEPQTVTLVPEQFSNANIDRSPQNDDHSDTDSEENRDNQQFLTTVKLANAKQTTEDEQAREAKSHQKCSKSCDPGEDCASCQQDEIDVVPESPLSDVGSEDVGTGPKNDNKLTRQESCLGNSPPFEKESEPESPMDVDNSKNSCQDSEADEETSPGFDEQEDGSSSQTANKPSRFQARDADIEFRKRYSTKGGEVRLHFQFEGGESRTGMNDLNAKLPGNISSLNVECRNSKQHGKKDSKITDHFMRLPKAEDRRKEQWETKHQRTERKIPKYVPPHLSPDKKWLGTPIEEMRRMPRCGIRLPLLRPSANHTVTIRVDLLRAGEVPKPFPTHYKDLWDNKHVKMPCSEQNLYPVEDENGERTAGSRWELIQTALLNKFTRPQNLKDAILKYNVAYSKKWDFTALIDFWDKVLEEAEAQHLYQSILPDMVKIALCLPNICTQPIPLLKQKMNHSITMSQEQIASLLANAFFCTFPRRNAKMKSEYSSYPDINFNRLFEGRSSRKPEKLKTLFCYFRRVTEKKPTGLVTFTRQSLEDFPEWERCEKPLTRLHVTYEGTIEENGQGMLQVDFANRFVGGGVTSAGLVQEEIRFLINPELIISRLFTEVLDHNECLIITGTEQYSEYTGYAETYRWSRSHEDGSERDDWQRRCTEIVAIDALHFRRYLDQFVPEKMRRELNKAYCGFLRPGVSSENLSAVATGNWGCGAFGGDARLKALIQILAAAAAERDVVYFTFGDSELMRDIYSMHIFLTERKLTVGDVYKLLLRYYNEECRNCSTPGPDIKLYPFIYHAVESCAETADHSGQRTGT

Row | SMILES | Fold activation (PXR) | IC50 (PARG)
1 | CCc1nc2n(-c3nnc(C(F)F)s3)c3cc(S(=O)(=O)NC4(C)CC4)cc(N4C[C@H](C)N[C@@H](C)C4)c3n2n1 [Compound 065R] | 1.45 | 0.4 nM
2 | C[C@H]1CN(c2cc(S(=O)(=O)NC3(C)CC3)cc3c2n2nc(C(F)F)nc2n3-c2nnc(C(F)F)s2)C[C@H](C)N1 [Compound 065S] | 1.82 | 1.4 nM
3 | C[C@H]1CN(c2cc(S(=O)(=O)NC3(C)CC3)cc3c2n2nc(C(F)(F)F)nc2n3-c2nnc(C(F)F)s2)C[C@H](C)N1 [Compound 065W] | 1.11 | 0.8 nM
